In ChEMBL document CHEMBL1147497, “The inhibition of metallo-beta-lactamase by thioxo-cephalosporin derivatives” (Bioorg Med Chem Lett, 2004):

Key:
[1] = pKa in water at 30 degree C; assay type: physicochemical
[2] = Binding affinity against nitrocefin

| SMILES | pKa [1] | Ki [2] |
| --- | --- | --- |
| CC1=C(C(=O)O)N[C@@H](C2NC(=O)C(c3ccccc3)N=C2S)SC1 (some centres not stated) | 10.1 |  |
| CC1=C(C(=O)O)N2C(=S)[C@@H](NC(=O)Cc3ccccc3)[C@H]2SC1 |  | 720 µM |
